Laboratory results as given in patent publication EP4001293A1, “TETRAPEPTIDE AND ITS USE” (Justus-Liebig-Universität Gießen, priority 2020, dated 2022).
Peptide text beside a SMILES is read from it.

Tests used:
Assay type in all cases: cell-based
[1] = tested on: Fokalen Adhäsionskinase (FAK); experiment: Stimulation/activation of focal adhesion kinase, fluorescence measurement; details: L6-Myoblasten
Description: (§1) Die Ausführungsbeispiele zeigen, dass die Tetrapeptide Seq ID 1-6 wenigstens die gleiche Wirksamkeit aufweisen wie Testosteron und die Testosteronanaloga. Dabei weisen sie als Tetrapeptide jedoch nicht die hormonbedingten Nebenwirkungen auf, da sie nur am membrangebundenen Androgenrezeptor ZIP-9 binden und nicht im Zellkern am klassischen Androgenrezeptor (AR). Eine besonders positive Wirkung kommt dem erfindungsgemäßen Tetrapeptid 1 Seq ID 1 zu. Die Wirksamkeit der erfindungsgemäßen Tetrapeptide Seq ID 1-6 zur Behandlung der Osteoporose, myodegenerativen Erkrankungen (zum Beispiel Muskeldystrophie, insbesondere jedoch Muskelatrophie) sowie der männlichen Infertilität wird experimentell in Zellkultur in einem charakteristischen Zellmodell gezeigt. Zur Verabreichung an Menschen und Tiere wird mindestens ein erfindungsgemäße Tetrapeptid als medizinisches Mittel in einer pharmazeutisch akzeptablen Komposition als Arzneimittel formuliert. Das medizinische Mittel wird zur Behandlung der Osteoporose, myodegenerativen Erkrankungen sowie der männlichen Infertilität bei Menschen und Tieren eingesetzt. Es löst dabei keine übermäßige Toxizität, Irritationen oder allergische Reaktionen aus. […]

[2] = tested on: L6-Myoblasten; experiment: Formation of myotubes (muscle fibres) from myoblasts; details: 9 Stunden Inkubation, Fig. 3B
Description: as §1

[3] = tested on: SAOS-2-Zellen; experiment: Stimulation of ossification, Alizarin red staining
Description: Die Ausführungsbeispiele zeigen, dass die Tetrapeptide Seq ID 1-6 wenigstens die gleiche Wirksamkeit aufweisen wie Testosteron und die Testosteronanaloga. Dabei weisen sie als Tetrapeptide jedoch nicht die hormonbedingten Nebenwirkungen auf, da sie nur am membrangebundenen Androgenrezeptor ZIP-9 binden und nicht im Zellkern am klassischen Androgenrezeptor (AR). Eine besonders positive Wirkung kommt dem erfindungsgemäßen Tetrapeptid 1 Seq ID 1 zu. Die Wirksamkeit der erfindungsgemäßen Tetrapeptide Seq ID 1-6 zur Behandlung der Osteoporose, myodegenerativen Erkrankungen (zum Beispiel Muskeldystrophie, insbesondere jedoch Muskelatrophie) sowie der männlichen Infertilität wird experimentell in Zellkultur in einem charakteristischen Zellmodell gezeigt. Zur Verabreichung an Menschen und Tiere wird mindestens ein erfindungsgemäße Tetrapeptid als medizinisches Mittel in einer pharmazeutisch akzeptablen Komposition als Arzneimittel formuliert. Das medizinische Mittel wird zur Behandlung der Osteoporose, myodegenerativen Erkrankungen sowie der männlichen Infertilität bei Menschen und Tieren eingesetzt. Es löst dabei keine übermäßige Toxizität, Irritationen oder allergische Reaktionen aus. Bevorzugt wird das medizinische Mittel umfassend mindestens ein erfindungsgemäßes Tetrapeptid Menschen oder Tieren in Form entweder oral, intramuskulär, intraossär, rektal, parenteral, intravenös, subkutan, intracisternal, intravaginal, intraperitoneal, intrathekal, intravasculär, lokal (Puder, Salbe oder Tropfen), in Sprayform oder als Pflaster verabreicht. Dosierungsformen für die örtliche Administration des medizinischen Mittels dieser Erfindung schließen Salben, Puder, Sprays oder Inhalationsmittel ein. Das mindestens eine erfindungsgemäße Tetrapeptid als medizinisches Mittel wird unter sterilen Bedingungen mit einem physiologisch akzeptablen Trägerstoff und möglichen Konservierungsmitteln, Puffern oder Treibmitteln, je nach Bedarf, vermischt. Ein Konservierungsmittel ist eine Chemikalie, die zugesetzt wird, um die Zersetzung zu verhindern. Es hilft, das medizinische Mittel gegen Bakterien- und Pilzbefall oder Abbau durch Enzyme zu schützen, indem es das Wachstum von Bakterien oder Pilzen verhindern und/oder die Zersetzung des Mittels verlangsamt. Bevorzugt wird das medizinische Mittel dieser Erfindung als Lyophilisat hergestellt. Bevorzugt wird das medizinische Mittel dieser Erfindung oral verabreicht. Da das darin enthaltene mindestens eine Tetrapeptid sehr klein ist, wird es von proteolytischen Enzymen nicht so rasch abgebaut und kann seine Wirksamkeit am ZIP-9 Rezeptor sehr selektiv und sehr spezifisch entfalten. Die Tetrapeptide Seq ID 1-6 werden gemäß Verfahren, die der Fachmann kennt, einfach und mit geringen Kosten hergestellt. Sie weisen in lyophilisierter Form eine lange Lagerungsbeständigkeit und hohe Aktivität auf. Die Lagerung ist bei Raumtemperatur möglich. Ein Vorteil ist, dass aufgrund der hohen Spezifität nur geringe Mengen verabreicht werden müssen, um an den ZIP-9 Rezeptor zu binden und dort die positiven Effekte auszulösen. In einem besonderen Ausführungsbeispiel wird das Tetrapeptid Seq ID 1 verkapselt, damit es im Magen-Darm-Trakt nicht abgebaut (säure-hydrolysiert), sondern als Tetrapeptid in den Blutkreislauf aufgenommen wird. Dazu werden z.B. mesoporöse Silicapartikel verwendet, die die Bioverfügbarkeit verlängern. Alternativ werden an das Tetrapeptid Polymere angehängt, wie z.B. Polyethlenglycolgruppen (PEGylierung). […]

[4] = tested on: Claudin-5; experiment: Stimulation of Claudin-5 formation, fluorescence measurement; details: 93RS2 Sertoli-Zellen; relative to control sample without tetrapeptide
Description: (§2) Die besondere Wirksamkeit von Tetrapeptid Seq ID 1 umfasst weiterhin die Stimulierung der Bildung von Claudin-1 und Claudin-5 in Zellen. Claudine sind kleine Transmembranproteine, die in vielen Organismen, Menschen und Tieren vorkommen und in ihrem Aufbau sehr ähnlich sind. Sie haben entscheidende Funktionen zur Bildung einer funktionierenden Barriere in verschiedenen Epithelien. Es gibt zahlreiche […] von Claudinen, die weitgehend ubiquitär exprimiert sind und Grundfunktionen für die Bildung der Tight-Junction-Bänder übernehmen. Caudin-1 und Claudin-5 sind spezialisierte Claudine, die an der Blut-Hoden-Schranke der männlichen Gonaden exprimiert werden. Ihre Beteiligung an der Ausbildung und Aufrechterhaltung der Tight Junctions an der Blut-Hoden-Schranke schützt die männlichen Keimzellen vor Angriffen des eigenen Immunsystems. Somit gehen Defekte der Blut-Hoden-Schranke immer mit Infertilität einher. […] Experimentell erfolgt die Quantifizierung der Stimulation der Bildung von Claudin-1 und/oder Claudin-5 in der Zelle durch Fluoreszenzmessung. Der quantitative Messwert zur Beschreibung der Stimulation der Bildung von Claudin-1 und/oder Claudin-5 in 93RS2 Sertoli-Zellen ist die Fluoreszenzintensität der mit dem Tetrapeptid behandelten Zellen bei mikroskopischer Betrachtung im direkten Vergleich mit einer gleichbehandelten Kontrollprobe ohne Tetrapeptid.

[5] = tested on: Claudin-1; experiment: Stimulation of Claudin-1 formation, fluorescence measurement; details: 93RS2 Sertoli-Zellen; relative to control sample without tetrapeptide
Description: as §2

[6] = tested on: Alkalischen Phosphatase (ALP); experiment: Expression of alkaline phosphatase, immunofluorescence; details: SAOS-2 Osteoblasten; for Expression der Alkalischen Phosphatase (grüne Fluoreszenz): Fig. 2A, 2B
Description: Die Ausführungsbeispiele zeigen, dass die Tetrapeptide Seq ID 1-6 wenigstens die gleiche Wirksamkeit aufweisen wie Testosteron und die Testosteronanaloga. Dabei weisen sie als Tetrapeptide jedoch nicht die hormonbedingten Nebenwirkungen auf, da sie nur am membrangebundenen Androgenrezeptor ZIP-9 binden und nicht im Zellkern am klassischen Androgenrezeptor (AR). Eine besonders positive Wirkung kommt dem erfindungsgemäßen Tetrapeptid 1 Seq ID 1 zu. Die Wirksamkeit der erfindungsgemäßen Tetrapeptide Seq ID 1-6 zur Behandlung der Osteoporose, myodegenerativen Erkrankungen (zum Beispiel Muskeldystrophie, insbesondere jedoch Muskelatrophie) sowie der männlichen Infertilität wird experimentell in Zellkultur in einem charakteristischen Zellmodell gezeigt. Zur Verabreichung an Menschen und Tiere wird mindestens ein erfindungsgemäße Tetrapeptid als medizinisches Mittel in einer pharmazeutisch akzeptablen Komposition als Arzneimittel formuliert. Das medizinische Mittel wird zur Behandlung der Osteoporose, myodegenerativen Erkrankungen sowie der männlichen Infertilität bei Menschen und Tieren eingesetzt. Es löst dabei keine übermäßige Toxizität, Irritationen oder allergische Reaktionen aus. Bevorzugt wird das medizinische Mittel umfassend mindestens ein erfindungsgemäßes Tetrapeptid Menschen oder Tieren in Form entweder oral, intramuskulär, intraossär, rektal, parenteral, intravenös, subkutan, intracisternal, intravaginal, intraperitoneal, intrathekal, intravasculär, lokal (Puder, Salbe oder Tropfen), in Sprayform oder als Pflaster verabreicht. Dosierungsformen für die örtliche Administration des medizinischen Mittels dieser Erfindung schließen Salben, Puder, Sprays oder Inhalationsmittel ein. Das mindestens eine erfindungsgemäße Tetrapeptid als medizinisches Mittel wird unter sterilen Bedingungen mit einem physiologisch akzeptablen Trägerstoff und möglichen Konservierungsmitteln, Puffern oder Treibmitteln, je nach Bedarf, vermischt. Ein Konservierungsmittel ist eine Chemikalie, die zugesetzt wird, um die Zersetzung zu verhindern. […]

[7] = tested on: Myogenin; experiment: Stimulation of myogenin formation, fluorescence measurement; details: L6-Myoblasten; relative to control sample without tetrapeptide
Description: as §1

[8] = tested on: Zonula Occludens-1 (ZO-1); experiment: Stimulation of ZO-1 expression, fluorescence measurement; details: Sertoli-Zellen; Fig. 4B-4D
Description: Experimentell erfolgt die Quantifizierung der Stimulation der Bildung von ZO-1 in 93RS2 Sertoli-Zellen durch quantitative Auswertung der Messung der Expression von ZO-1. Der quantitative Messwert zur Beschreibung der Stimulation der Expression von ZO-1 ist die Häufigkeit (Frequenz), mit der mindestens ein bestimmter Wert ("Wert") der Fluoreszenzintensität gemessen wird. Die Bedeutung der Begriffe "Häufigkeit"/"Frequenz" und "Wert"/"Wert der Fluoreszenzintensität" ist dabei analog der Bedeutung im Zusammenhang mit der Alkalischen Phosphatase und bezieht sich hierbei auf Fig. 4F bzw. Fig. 4G bzw. Fig. 4H bzw. Fig. 4I. Die Häufigkeit des mindestens einen bestimmten Wertes der in den mit dem erfindungsgemäßen Tetrapeptid behandelten Zellen gemessenen Werte im direkten Vergleich mit der Häufigkeit des mindestens einen gleichen Wertes, die in Tetrapeptid-freien aber ansonsten gleich behandelten Kontrollzellen gemessen wird, beträgt ab dem Wert 70 mindestens 120 % der in den gleich behandelten Kontrollzellen gemessenen Häufigkeit ab dem Wert 70.
Die Durchführung des Färbevorganges erfolgt bei allen Proben (Referenz, Vergleichsprobe mit Testosteron und Tetrapeptid) in gleicher Weise, so dass die Farbstärke (erkennbar in der photographischen Darstellung in Fig. 1A und Fig. 1B anhand der Grauwerte in der jeweiligen Abbildung) als Maß für die Stimulierung dient (je dunkler der Grauwert, umso stärker die Stimulation zur Ossifikation). […] Dem Fachmann sind diese Zusammenhänge bekannt, ebenso weiß er wie Untersuchungen der Expression von Enzymen, und somit auch der ALP, quantitativ durchgeführt werden, so dass darauf hier nur allgemein eingegangen werden muss. […] Im Rahmen der vorliegenden Ausführungsbeispiele (Beispielmessungen) wurden alle dem Fachmann bekannten Parameter, beispielsweise Lösungsmittel- und Pufferzusammensetzungen sowie -Konzentrationen, Temperaturen, Geräteeinstellungen (z. B. für die Messung der Fluoreszenzstärke) usw. in geeigneten Grenzen konstant gehalten, so dass die Versuchsergebnisse die beschriebenen quantitativ-vergleichbaren relativen Ergebnisse liefern. […]

[9] = tested on: SAOS-2-Zellen; experiment: Stimulation of ossification, Alizarin red staining; remark: listed apart in the source
Description: (§3) Zur Verabreichung an Menschen und Tiere wird mindestens ein erfindungsgemäße Tetrapeptid als medizinisches Mittel in einer pharmazeutisch akzeptablen Komposition als Arzneimittel formuliert. […] Bevorzugt wird das medizinische Mittel umfassend mindestens ein erfindungsgemäßes Tetrapeptid Menschen oder Tieren in Form entweder oral, intramuskulär, intraossär, rektal, parenteral, intravenös, subkutan, intracisternal, intravaginal, intraperitoneal, intrathekal, intravasculär, lokal (Puder, Salbe oder Tropfen), in Sprayform oder als Pflaster verabreicht. Dosierungsformen für die örtliche Administration des medizinischen Mittels dieser Erfindung schließen Salben, Puder, Sprays oder Inhalationsmittel ein. Das mindestens eine erfindungsgemäße Tetrapeptid als medizinisches Mittel wird unter sterilen Bedingungen mit einem physiologisch akzeptablen Trägerstoff und möglichen Konservierungsmitteln, Puffern oder Treibmitteln, je nach Bedarf, vermischt. Ein Konservierungsmittel ist eine Chemikalie, die zugesetzt wird, um die Zersetzung zu verhindern. […] Bevorzugt wird das medizinische Mittel dieser Erfindung als Lyophilisat hergestellt. Bevorzugt wird das medizinische Mittel dieser Erfindung oral verabreicht.

[10] = tested on: Fokalen Adhäsionskinase (FAK); experiment: Stimulation/activation of focal adhesion kinase, fluorescence measurement; details: L6-Myoblasten; 6 Stunden Inkubation; versus reference sample; Fig. 3A
Description: as §3

[11] = tested on: L6-Myoblasten; experiment: Formation of myotubes (muscle fibres) from myoblasts; details: 9 Stunden Inkubation, Fig. 3B; remark: listed apart in the source
Description: as §3

[12] = tested on: Alkalischen Phosphatase (ALP); experiment: Expression of alkaline phosphatase, immunofluorescence; details: SAOS-2 Osteoblasten; Fig. 2A, 2B
Description: as §3

CC[C@H](C)[C@H](N)C(=O)N[C@@H](C)C(=O)N1CCC[C@H]1C(=O)NCC(=O)O [Peptid-1, IAPG] (H-IAPG-OH)
grüne Fluoreszenz (FAK) ([1]; 6 Stunden Inkubation, versus reference sample, Fig. 3A): stärkere grüne Fluoreszenz
Fluoreszenzintensität (FAK) ([1]; relative to control sample without tetrapeptide): wenigstens den dreifachen Wert
Bildung von Myotuben (Muskelfasern) [2]: Myotuben (= Muskelfasern) gebildet
Bildung von Myotuben (Muskelfasern) ([2]; listed as Tetrapeptid Seq ID 1): die Muselfaserbildung stimuliert
Stimulierung der Ossifikation ([3]; 4 Tagen Inkubation, Fig. 1A): Stimulierung der Ossifikation
Stimulierung der Ossifikation ([3]; 11 Tagen Inkubation, Fig. 1B): Stimulierung der Ossifikation
Farbstärke (Alizarinrot) ([3]; relative to equally treated control sample without tetrapeptide): wenigstens den dreifachen Wert
Fluoreszenzintensität (Claudin-5) [4]: wenigstens den dreifachen Wert
Fluoreszenzintensität (Claudin-1) [5]: wenigstens den dreifachen Wert
Expression der Alkalischen Phosphatase (grüne Fluoreszenz) [6]: Abnahme der grünen Fluoreszenz
Häufigkeit (Frequenz) der Fluoreszenzintensität, Expression der ALP ([6]; ab dem Wert 65, % of frequency in tetrapeptide-free control cells): ≤ 50%
Fluoreszenzintensität (Myogenin) [7]: wenigstens den dreifachen Wert
Expression von Zonula occludens-1 (ZO-1) [8]: stimulierenden Wirkung

CC(C)[C@H](NC(=O)CN)C(=O)N[C@@H](CO)C(=O)NCC(=O)O [Peptid-2, GVSG] (H-GVSG-OH)
Stimulierung der Ossifikation ([3]; 4 Tagen Inkubation, Fig. 1A): Stimulierung der Ossifikation
Stimulierung der Ossifikation ([3]; 11 Tagen Inkubation, Fig. 1B): Stimulierung der Ossifikation
Expression der Alkalischen Phosphatase (grüne Fluoreszenz) [6]: Abnahme der grünen Fluoreszenz
Expression von Zonula occludens-1 (ZO-1) [8]: stimulierenden Wirkung

C[C@]12CC[C@H]3[C@@H](CCC4=CC(=O)CC[C@@]43C)[C@@H]1CC[C@@H]2O [Testosteron]
Stimulierung der Ossifikation ([9]; 4 Tagen Inkubation, Fig. 1A): Stimulierung der Ossifikation
Stimulierung der Ossifikation ([9]; 11 Tagen Inkubation, Fig. 1B): Stimulierung der Ossifikation
grüne Fluoreszenz (FAK) [10]: stärkere grüne Fluoreszenz
Bildung von Myotuben (Muskelfasern) [11]: Myotuben (= Muskelfasern) gebildet
Expression der Alkalischen Phosphatase (grüne Fluoreszenz) [12]: Abnahme der grünen Fluoreszenz

GWG [Peptid-3]
Expression von Zonula occludens-1 (ZO-1) [8]: stimulierenden Wirkung
